pEC50: −log10 of the molar value.

This assay can be described thus: Effective concentration that reduces HIV-induced cytopathic effect by 50% was determined by reverse transcriptase (RT) assay. (In general: Cytopathic effects are the visible damage that an infection or toxin causes in cultured cells.)
For orientation: pEC50 means −log10 of the EC50, conventionally taken in molar units. High values mean a low EC50, low ones a high EC50. `CCCCCCCCCCCCCCCC(=O)OCC1C=CC(n2cc(C)c(=O)[nH]c2=O)O1` (stereo not given) [Hexadecanoic acid 5-(5-methyl-2,4-dioxo-3,4-dihydro-2H-pyrimidin-1-yl)-2,5-dihydro-furan-2-ylmethyl ester] showed a pEC50 of 7.10. The value for `Cc1cn([C@H]2C=C[C@@H](CO)O2)c(=O)[nH]c1=O` [2',3'-didehydro-3'-deoxythymidine] was 7.30. The value for `Cc1cn([C@H]2C[C@H](N=[N+]=[N-])[C@@H](CO)O2)c(=O)[nH]c1=O` [1-((2R,4S,5S)-4-Azido-5-hydroxymethyl-tetrahydro-furan-2-yl)-5-methyl-1H-pyrimidine-2,4-dione] was 8.00; that for `CCCCCCCCCCCCCCCCOP(=O)(O)OCC1C=CC(n2cc(C)c(=O)[nH]c2=O)O1` (stereo not given) [Phosphoric acid hexadecyl ester 5-(5-methyl-2,4-dioxo-3,4-dihydro-2H-pyrimidin-1-yl)-2,5-dihydro-furan-2-ylmethyl ester] was 6.70; that for `Cc1cn(C2C=CC(COP(=O)(O)OCC3C=CC(n4cc(C)c(=O)[nH]c4=O)O3)O2)c(=O)[nH]c1=O` (stereo not given) [Phosphoric acid bis-[5-(5-methyl-2,4-dioxo-3,4-dihydro-2H-pyrimidin-1-yl)-2,5-dihydro-furan-2-ylmethyl] ester] was 7.30.
